Results reported in the NIST ThermoML archive (doi:10.1016/j.fluid.2008.06.007).
± gives the expanded uncertainty stated by the source.

Conditions: Liquid, Vibrating tube method

CCCCCO [pentan-1-ol]
Conditions	mass density [kg/m3]
293.15 K, 100 kPa	814.7 ± 1
293.15 K, 10000 kPa	821.1 ± 1
293.15 K, 20000 kPa	827.3 ± 1.1
293.15 K, 30000 kPa	833.2 ± 1.1
293.15 K, 40000 kPa	838.6 ± 1.1
293.15 K, 50000 kPa	843.6 ± 1.1
293.15 K, 60000 kPa	848.5 ± 1.1
293.15 K, 70000 kPa	853.1 ± 1.1
293.15 K, 80000 kPa	857.4 ± 1.1
293.15 K, 90000 kPa	861.7 ± 1.2
293.15 K, 100000 kPa	865.8 ± 1.2
293.15 K, 110000 kPa	869.6 ± 1.2
293.15 K, 120000 kPa	873.2 ± 1.2
293.15 K, 130000 kPa	876.9 ± 1.2
293.15 K, 140000 kPa	880.3 ± 1.2
303.15 K, 100 kPa	807.3 ± 1
303.15 K, 10000 kPa	814.4 ± 1.1
303.15 K, 20000 kPa	820.7 ± 1.1
303.15 K, 30000 kPa	826.7 ± 1.1
303.15 K, 40000 kPa	832.2 ± 1.1
303.15 K, 50000 kPa	837.5 ± 1.1
303.15 K, 60000 kPa	842.4 ± 1.1
303.15 K, 70000 kPa	847 ± 1.1
303.15 K, 80000 kPa	851.6 ± 1.1
303.15 K, 90000 kPa	855.8 ± 1.2
303.15 K, 100000 kPa	860.1 ± 1.2
303.15 K, 110000 kPa	864.1 ± 1.2
303.15 K, 120000 kPa	868 ± 1.2
303.15 K, 130000 kPa	871.7 ± 1.2
303.15 K, 140000 kPa	875.2 ± 1.2
313.15 K, 100 kPa	799.8 ± 1.1
313.15 K, 10000 kPa	807.4 ± 1.1
313.15 K, 20000 kPa	814.1 ± 1.1
313.15 K, 30000 kPa	820.2 ± 1.1
313.15 K, 40000 kPa	826 ± 1.1
313.15 K, 50000 kPa	831.5 ± 1.1
313.15 K, 60000 kPa	836.6 ± 1.1
313.15 K, 70000 kPa	841.4 ± 1.1
313.15 K, 80000 kPa	846.1 ± 1.2
313.15 K, 90000 kPa	850.5 ± 1.2
313.15 K, 100000 kPa	854.8 ± 1.2
313.15 K, 110000 kPa	858.9 ± 1.2
313.15 K, 120000 kPa	862.8 ± 1.2
313.15 K, 130000 kPa	866.6 ± 1.2
313.15 K, 140000 kPa	870.2 ± 1.3
323.15 K, 100 kPa	792.5 ± 1.1
323.15 K, 10000 kPa	800.3 ± 1.1
323.15 K, 20000 kPa	807.3 ± 1.1
323.15 K, 30000 kPa	813.7 ± 1.1
323.15 K, 40000 kPa	819.8 ± 1.1
323.15 K, 50000 kPa	825.4 ± 1.1
323.15 K, 60000 kPa	830.7 ± 1.1
323.15 K, 70000 kPa	835.7 ± 1.1
323.15 K, 80000 kPa	840.4 ± 1.2
323.15 K, 90000 kPa	845 ± 1.2
323.15 K, 100000 kPa	849.3 ± 1.2
323.15 K, 110000 kPa	853.6 ± 1.2
323.15 K, 120000 kPa	857.6 ± 1.2
323.15 K, 130000 kPa	861.5 ± 1.3
323.15 K, 140000 kPa	865.3 ± 1.3
333.15 K, 100 kPa	784.4 ± 1.1
333.15 K, 10000 kPa	792.7 ± 1.1
333.15 K, 20000 kPa	800.1 ± 1.1
333.15 K, 30000 kPa	806.8 ± 1.1
333.15 K, 40000 kPa	813.1 ± 1.1
333.15 K, 50000 kPa	818.9 ± 1.1
333.15 K, 60000 kPa	824.4 ± 1.1
333.15 K, 70000 kPa	829.7 ± 1.2
333.15 K, 80000 kPa	834.6 ± 1.2
333.15 K, 90000 kPa	839.2 ± 1.2
333.15 K, 100000 kPa	843.7 ± 1.2
333.15 K, 110000 kPa	848 ± 1.2
333.15 K, 120000 kPa	852.1 ± 1.3
333.15 K, 130000 kPa	856 ± 1.3
333.15 K, 140000 kPa	860 ± 1.3
343.15 K, 100 kPa	776.5 ± 1.1
343.15 K, 10000 kPa	785.2 ± 1.1
343.15 K, 20000 kPa	792.9 ± 1.1
343.15 K, 30000 kPa	799.9 ± 1.1
343.15 K, 40000 kPa	806.6 ± 1.1
343.15 K, 50000 kPa	812.6 ± 1.1
343.15 K, 60000 kPa	818.3 ± 1.1
343.15 K, 70000 kPa	823.7 ± 1.2
343.15 K, 80000 kPa	828.7 ± 1.2
343.15 K, 90000 kPa	833.5 ± 1.2
343.15 K, 100000 kPa	838.2 ± 1.2
343.15 K, 110000 kPa	842.5 ± 1.3
343.15 K, 120000 kPa	846.8 ± 1.3
343.15 K, 130000 kPa	850.9 ± 1.3
343.15 K, 140000 kPa	854.8 ± 1.3
353.15 K, 100 kPa	768.1 ± 1.1
353.15 K, 10000 kPa	777.3 ± 1.1
353.15 K, 20000 kPa	785.6 ± 1.1
353.15 K, 30000 kPa	792.9 ± 1.1
353.15 K, 40000 kPa	799.8 ± 1.1
353.15 K, 50000 kPa	806.1 ± 1.1
353.15 K, 60000 kPa	812 ± 1.2
353.15 K, 70000 kPa	817.6 ± 1.2
353.15 K, 80000 kPa	822.8 ± 1.2
353.15 K, 90000 kPa	827.8 ± 1.2
353.15 K, 100000 kPa	832.6 ± 1.2
353.15 K, 110000 kPa	837.2 ± 1.3
353.15 K, 120000 kPa	841.6 ± 1.3
353.15 K, 130000 kPa	845.8 ± 1.3
353.15 K, 140000 kPa	849.7 ± 1.3
363.15 K, 100 kPa	759.4 ± 1.1
363.15 K, 10000 kPa	769.2 ± 1.1
363.15 K, 20000 kPa	777.7 ± 1.1
363.15 K, 30000 kPa	785.6 ± 1.1
363.15 K, 40000 kPa	792.6 ± 1.1
363.15 K, 50000 kPa	799.2 ± 1.1
363.15 K, 60000 kPa	805.5 ± 1.2
363.15 K, 70000 kPa	811.3 ± 1.2
363.15 K, 80000 kPa	816.7 ± 1.2
363.15 K, 90000 kPa	821.8 ± 1.2
363.15 K, 100000 kPa	826.8 ± 1.3
363.15 K, 110000 kPa	831.3 ± 1.3
363.15 K, 120000 kPa	835.8 ± 1.3
363.15 K, 130000 kPa	840.1 ± 1.3
363.15 K, 140000 kPa	844.2 ± 1.3
373.15 K, 100 kPa	750.7 ± 1.1
373.15 K, 10000 kPa	761.2 ± 1.1
373.15 K, 20000 kPa	770.3 ± 1.1
373.15 K, 30000 kPa	778.2 ± 1.1
373.15 K, 40000 kPa	785.7 ± 1.1
373.15 K, 50000 kPa	792.5 ± 1.2
373.15 K, 60000 kPa	798.9 ± 1.2
373.15 K, 70000 kPa	804.9 ± 1.2
373.15 K, 80000 kPa	810.5 ± 1.2
373.15 K, 90000 kPa	815.8 ± 1.2
373.15 K, 100000 kPa	820.9 ± 1.3
373.15 K, 110000 kPa	825.7 ± 1.3
373.15 K, 120000 kPa	830.3 ± 1.3
373.15 K, 130000 kPa	834.7 ± 1.3
373.15 K, 140000 kPa	839 ± 1.4
383.15 K, 100 kPa	741.5 ± 1.1
383.15 K, 10000 kPa	752.3 ± 1.1
383.15 K, 20000 kPa	761.9 ± 1.1
383.15 K, 30000 kPa	770.7 ± 1.1
383.15 K, 40000 kPa	778.5 ± 1.1
383.15 K, 50000 kPa	785.7 ± 1.2
383.15 K, 60000 kPa	792.3 ± 1.2
383.15 K, 70000 kPa	798.5 ± 1.2
383.15 K, 80000 kPa	804.3 ± 1.2
383.15 K, 90000 kPa	809.7 ± 1.3
383.15 K, 100000 kPa	815 ± 1.3
383.15 K, 110000 kPa	819.9 ± 1.3
383.15 K, 120000 kPa	824.7 ± 1.3
383.15 K, 130000 kPa	829.2 ± 1.4
383.15 K, 140000 kPa	833.5 ± 1.4
393.15 K, 100 kPa	731.7 ± 1.1
393.15 K, 10000 kPa	743.4 ± 1.1
393.15 K, 20000 kPa	753.7 ± 1.1
393.15 K, 30000 kPa	762.8 ± 1.1
393.15 K, 40000 kPa	771 ± 1.1
393.15 K, 50000 kPa	778.6 ± 1.2
393.15 K, 60000 kPa	785.6 ± 1.2
393.15 K, 70000 kPa	792 ± 1.2
393.15 K, 80000 kPa	798.1 ± 1.2
393.15 K, 90000 kPa	803.7 ± 1.3
393.15 K, 100000 kPa	809.1 ± 1.3
393.15 K, 110000 kPa	814.2 ± 1.3
393.15 K, 120000 kPa	819.1 ± 1.4
393.15 K, 130000 kPa	823.7 ± 1.4
393.15 K, 140000 kPa	828.1 ± 1.4
403.15 K, 100 kPa	721.7 ± 1.1
403.15 K, 10000 kPa	734.4 ± 1.1
403.15 K, 20000 kPa	745.3 ± 1.1
403.15 K, 30000 kPa	754.9 ± 1.1
403.15 K, 40000 kPa	763.4 ± 1.2
403.15 K, 50000 kPa	771.3 ± 1.2
403.15 K, 60000 kPa	778.4 ± 1.2
403.15 K, 70000 kPa	785.1 ± 1.2
403.15 K, 80000 kPa	791.3 ± 1.3
403.15 K, 90000 kPa	797.2 ± 1.3
403.15 K, 100000 kPa	802.8 ± 1.3
403.15 K, 110000 kPa	808 ± 1.3
403.15 K, 120000 kPa	813 ± 1.4
403.15 K, 130000 kPa	817.8 ± 1.4
403.15 K, 140000 kPa	822.3 ± 1.4
